Measured values published in patent US8536191B2 (priority 2010, dated 2013).
Like-named read-outs stand apart in the source and are kept apart here.

Columns and labels:
[1] = Physical stability under mechanical stress (compression, grinding, milling), checked by X-ray powder diffraction; type: physicochemical
Protocol: The crystalline forms of nalbuphine HCl were identified by their powder X-ray diffraction (PXRD) peaks/pattern. PXRD analyses of crystalline Forms A, B, C, D, F, G, H, I, K and amorphous Form Z were performed using an Inel XRG-3000 diffractometer equipped with a CPS (Curved Position Sensitive) detector with a 2θ range of 120°. Real time data were collected using Cu—Kα radiation starting at approximately 4°2θ at a resolution of 0.03°2θ. The tube voltage and amperage were set to 40 kV and 30 mA, respectively. The monochromator slit was set at 5 mm by 160 μm. […] The sample was prepared for analysis by packing into a thin-walled glass capillary. The capillary was mounted onto a goniometer head that is motorized to permit spinning of the capillary during data acquisition. Instrument calibration was performed using a silicon reference standard.

[2] = Form conversion upon heating (VT-XRPD); type: physicochemical; conditions: before melting, HCl
Protocol: Variable-temperature X-ray powder diffraction (VT-XRPD) analysis was performed on a Shimadzu XRD-6000 X-ray powder diffractometer equipped with an Anton Paar HTK 1200 high temperature stage. The sample was packed in a ceramic holder and analyzed from 2.5 to 40°2θ at 3°/min (0.4 sec/0.02° step). The heating rate was 10° C./min. Cooling was done by shutting off the furnace. A silicon standard was analyzed to check the instrument alignment. Temperature calibration was performed using vanillin and sulfapyridine standards. Data were collected and analyzed using XRD-6100/7000 v. 5.0. In house software (Pattern Match, SSCI Inc., An Aptuit Company) was used to generate and edit the peak lists. The value of each peak position represents the value at the apex of the peak. In the tables which follow herein, the PXRD peak lists are presented for each solid form along with the conversion to ‘d’ value (assuming a mean Cu Kα wavelength of 1.5418 Å) and relative peak intensities scaled to 100. The relative intensity (“R.I.”) of each peak is shown, wherein Relative Intensity is the ratio of the height of each peak compared to the highest peak, which is designated as 100%.

[3] = Physical stability on drying at 60° C.; conditions: dried at 60° C.

Cl.Oc1ccc2c3c1O[C@H]1[C@@H](O)CC[C@@]4(O)[C@@H](C2)N(CC2CCC2)CC[C@]314 [Form B, nalbuphine HCl]
physical stability when milled ([1]; milled, X-ray powder diffraction): physically unstable when milled, losing its crystallinity | temperature of conversion to Form F upon heating [2]: about 190 °C | physical stability when dried [3]: mostly converting to Form C (monohydrate)

Cl.Oc1ccc2c3c1O[C@H]1[C@@H](O)CC[C@@]4(O)[C@@H](C2)N(CC2CCC2)CC[C@]314 [Form C, nalbuphine HCl]
temperature of conversion to Form F upon heating [2]: 200 °C | form change at extremely high humidity (97% RH): converts to Form B (dihydrate)

Cl.Oc1ccc2c3c1O[C@H]1[C@@H](O)CC[C@@]4(O)[C@@H](C2)N(CC2CCC2)CC[C@]314 [Form A]
form change under mechanical stress ([1]; compression or dry grinding): converting to Form C | effect of further grinding on crystallinity ([1]; further grinding, X-ray powder diffraction): some loss of crystallinity and formed partially amorphous material | form change under mechanical stress ([1]; wet grinding): Form B | form change at extremely high humidity (97% RH, hydrochloride): Form B (dihydrate)

Cl.Oc1ccc2c3c1O[C@H]1[C@@H](O)CC[C@@]4(O)[C@@H](C2)N(CC2CCC2)CC[C@]314 [Form F, nalbuphine HCl]
form change at extremely high humidity (85% RH): converts to Form B (dihydrate)

Cl.Oc1ccc2c3c1O[C@H]1[C@@H](O)CC[C@@]4(O)[C@@H](C2)N(CC2CCC2)CC[C@]314 [Form D, nalbuphine HCl]
temperature of conversion to Form F upon heating [2]: about 180 °C
